Results: PubChem BioAssay (NCI)
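Values below derive from 48-hour exposures of cells grown in 96-well plates, with endpoints linearly interpolated between the two concentrations bracketing the appropriate inhibition level. GI50 marks 50% less growth. TGI: total growth inhibition.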

Assays:
Experiment in all cases: NCI tumour cell line growth inhibition, 48 h
786-0 renal = test system: 786-0 renal
A549 NSCLC = test system: A549 NSCLC
ACHN renal = test system: ACHN renal
CAKI-1 renal = test system: CAKI-1 renal
CCRF-CEM leukemia = test system: CCRF-CEM leukemia
COLO 205 colon = test system: COLO 205 colon
HL-60(TB) leukemia = test system: HL-60(TB) leukemia
HOP-62 NSCLC = test system: HOP-62 NSCLC
IGROV1 ovarian = test system: IGROV1 ovarian
K-562 leukemia = test system: K-562 leukemia
M14 melanoma = test system: M14 melanoma
MALME-3M melanoma = test system: MALME-3M melanoma
MCF7 breast = test system: MCF7 breast
MDA-MB-435 = test system: MDA-MB-435
MOLT-4 leukemia = test system: MOLT-4 leukemia
NCI-H23 lung = test system: NCI-H23 lung
NCI-H460 lung = test system: NCI-H460 lung
NCI/ADR-RES ovarian = test system: NCI/ADR-RES ovarian
OVCAR-4 ovarian = test system: OVCAR-4 ovarian
OVCAR-5 ovarian = test system: OVCAR-5 ovarian
RPMI-8226 leukemia = test system: RPMI-8226 leukemia
RXF 393 renal = test system: RXF 393 renal
SF-268 CNS = test system: SF-268 CNS
SK-MEL-2 melanoma = test system: SK-MEL-2 melanoma
SK-MEL-28 melanoma = test system: SK-MEL-28 melanoma
SK-MEL-5 melanoma = test system: SK-MEL-5 melanoma
SK-OV-3 ovarian = test system: SK-OV-3 ovarian
SNB-75 CNS = test system: SNB-75 CNS
SR leukemia = test system: SR leukemia
SW-620 colon = test system: SW-620 colon
T-47D breast = test system: T-47D breast
U251 CNS = test system: U251 CNS
UACC-62 melanoma = test system: UACC-62 melanoma
A498 renal = test system: A498 renal
BT-549 breast = test system: BT-549 breast
DU-145 prostate = test system: DU-145 prostate
EKVX NSCLC = test system: EKVX NSCLC
HCC-2998 colon = test system: HCC-2998 colon
HCT-116 colon = test system: HCT-116 colon
HCT-15 colon = test system: HCT-15 colon
HOP-92 NSCLC = test system: HOP-92 NSCLC
HS 578T breast = test system: HS 578T breast
HT29 colon = test system: HT29 colon
KM12 colon = test system: KM12 colon
LOX IMVI melanoma = test system: LOX IMVI melanoma
MDA-MB-231 breast = test system: MDA-MB-231 breast
NCI-H226 lung = test system: NCI-H226 lung
NCI-H522 lung = test system: NCI-H522 lung
OVCAR-3 ovarian = test system: OVCAR-3 ovarian
OVCAR-8 ovarian = test system: OVCAR-8 ovarian
PC-3 prostate = test system: PC-3 prostate
SF-295 CNS = test system: SF-295 CNS
SF-539 CNS = test system: SF-539 CNS
SN12C renal = test system: SN12C renal
SNB-19 CNS = test system: SNB-19 CNS
TK-10 renal = test system: TK-10 renal
UACC-257 melanoma = test system: UACC-257 melanoma
UO-31 renal = test system: UO-31 renal

## O=C1c2ccccc2-c2nnc(-c3ccccc3)cc21
786-0 renal
  TGI: > 10000 nM
A549 NSCLC
  TGI: > 10000 nM
ACHN renal
  TGI: > 10000 nM
CAKI-1 renal
  TGI: > 10000 nM
CCRF-CEM leukemia
  TGI: > 10000 nM
COLO 205 colon
  TGI: > 10000 nM
HL-60(TB) leukemia
  TGI: > 10000 nM
HOP-62 NSCLC
  TGI: > 10000 nM
IGROV1 ovarian
  TGI: > 10000 nM
K-562 leukemia
  TGI: > 10000 nM
M14 melanoma
  TGI: > 10000 nM
MALME-3M melanoma
  TGI: > 10000 nM
MCF7 breast
  TGI: > 10000 nM
MDA-MB-435
  TGI: > 10000 nM
MOLT-4 leukemia
  TGI: > 10000 nM
NCI-H23 lung
  TGI: > 10000 nM
NCI-H460 lung
  TGI: > 10000 nM
NCI/ADR-RES ovarian
  TGI: > 10000 nM
OVCAR-4 ovarian
  TGI: > 10000 nM
OVCAR-5 ovarian
  TGI: > 10000 nM
RPMI-8226 leukemia
  TGI: > 10000 nM
RXF 393 renal
  TGI: > 10000 nM
SF-268 CNS
  TGI: > 10000 nM
SK-MEL-2 melanoma
  TGI: > 10000 nM
SK-MEL-28 melanoma
  TGI: > 10000 nM
SK-MEL-5 melanoma
  TGI: > 10000 nM
SK-OV-3 ovarian
  TGI: > 10000 nM
SNB-75 CNS
  TGI: > 10000 nM
SR leukemia
  TGI: > 10000 nM
SW-620 colon
  TGI: > 10000 nM
T-47D breast
  TGI: > 10000 nM
U251 CNS
  TGI: > 10000 nM
UACC-62 melanoma
  TGI: > 10000 nM

## CC(=O)OC1COC(S[As](C)C)C(OC(C)=O)C1OC(C)=O (stereo not given)
786-0 renal
  GI50: 81.1 nM
  TGI: 1120 nM
A498 renal
  GI50: 285 nM
  TGI: 1560 nM
A549 NSCLC
  GI50: 3510 nM
  TGI: > 32400 nM
ACHN renal
  GI50: 195 nM
  TGI: 1520 nM
BT-549 breast
  GI50: 755 nM
  TGI: 6220 nM
CAKI-1 renal
  GI50: 41 nM
  TGI: 740 nM
CCRF-CEM leukemia
  GI50: 44.4 nM
  TGI: 152 nM
COLO 205 colon
  GI50: 575 nM
  TGI: 4960 nM
DU-145 prostate
  GI50: 70.1 nM
  TGI: 902 nM
EKVX NSCLC
  GI50: 2070 nM
  TGI: 17100 nM
HCC-2998 colon
  GI50: 333 nM
  TGI: 922 nM
HCT-116 colon
  GI50: 170 nM
  TGI: 2040 nM
HCT-15 colon
  GI50: 191 nM
  TGI: 1360 nM
HL-60(TB) leukemia
  GI50: < 15.8 nM
  TGI: 72 nM
HOP-62 NSCLC
  GI50: 2290 nM
  TGI: 14900 nM
HOP-92 NSCLC
  GI50: 33.2 nM
  TGI: 280 nM
HS 578T breast
  GI50: 344 nM
  TGI: 916 nM
HT29 colon
  GI50: 558 nM
  TGI: > 100000 nM
IGROV1 ovarian
  GI50: 225 nM
  TGI: 1580 nM
K-562 leukemia
  GI50: 17.6 nM
  TGI: 91.3 nM
KM12 colon
  GI50: 1150 nM
  TGI: 9240 nM
LOX IMVI melanoma
  GI50: 223 nM
  TGI: 691 nM
M14 melanoma
  GI50: < 41.9 nM
  TGI: 1100 nM
MALME-3M melanoma
  GI50: 15.9 nM
  TGI: 287 nM
MCF7 breast
  GI50: 165 nM
  TGI: 5200 nM
MDA-MB-231 breast
  GI50: 512 nM
  TGI: 2860 nM
MDA-MB-435
  GI50: 64.3 nM
  TGI: 358 nM
MOLT-4 leukemia
  GI50: 15.2 nM
  TGI: 67.2 nM
NCI-H226 lung
  GI50: 1470 nM
  TGI: 7900 nM
NCI-H23 lung
  GI50: 322 nM
  TGI: 4530 nM
NCI-H460 lung
  GI50: 1050 nM
  TGI: 14500 nM
NCI-H522 lung
  GI50: 32.1 nM
  TGI: 139 nM
NCI/ADR-RES ovarian
  GI50: 155 nM
  TGI: 974 nM
OVCAR-3 ovarian
  GI50: < 13.8 nM
  TGI: 40.4 nM
OVCAR-4 ovarian
  GI50: 2530 nM
  TGI: 24000 nM
OVCAR-5 ovarian
  GI50: 226 nM
  TGI: 1800 nM
OVCAR-8 ovarian
  GI50: 735 nM
  TGI: 5310 nM
PC-3 prostate
  GI50: 164 nM
  TGI: 2040 nM
RPMI-8226 leukemia
  TGI: 24.5 nM
RXF 393 renal
  GI50: 338 nM
  TGI: 2900 nM
SF-268 CNS
  GI50: 1230 nM
  TGI: 11600 nM
SF-295 CNS
  GI50: 2190 nM
  TGI: 8310 nM
SF-539 CNS
  GI50: 71.3 nM
  TGI: 315 nM
SK-MEL-2 melanoma
  GI50: 429 nM
  TGI: 1990 nM
SK-MEL-28 melanoma
  GI50: 666 nM
  TGI: 8890 nM
SK-MEL-5 melanoma
  GI50: 65.8 nM
  TGI: 253 nM
SK-OV-3 ovarian
  GI50: 1810 nM
  TGI: 17300 nM
SN12C renal
  GI50: 480 nM
  TGI: 2740 nM
SNB-19 CNS
  GI50: 14700 nM
  TGI: 49500 nM
SNB-75 CNS
  GI50: 3490 nM
  TGI: 21700 nM
SW-620 colon
  GI50: 341 nM
  TGI: 1690 nM
T-47D breast
  GI50: 2670 nM
  TGI: 19900 nM
TK-10 renal
  GI50: 80 nM
  TGI: 832 nM
U251 CNS
  GI50: 639 nM
  TGI: 5240 nM
UACC-257 melanoma
  GI50: 2610 nM
UACC-62 melanoma
  GI50: 285 nM
  TGI: 1610 nM
UO-31 renal
  GI50: 102 nM
  TGI: 805 nM
